Patent US8148391B2 (Cephalon, Inc., priority 2006, dated 2012)
Read-outs that look alike come from different tables or passages of the source. Blank lines part the entries; values can stand above or below the molecule they belong to.

What was measured:
[1] = molecular target: T1, c-Met (cytoplasmic domain) (Homo sapiens, UniProt P08581); assay: c-Met Kinase Assay (same methods as for ALK, with modifications); type: biochemical
T1 construct: 10 ng/mL c-Met (cytoplasmic domain, Invitrogen Corporation #PV3143); purchased Invitrogen Corporation PV3143
T1 sequence (P08581 956-1390 limits assumed): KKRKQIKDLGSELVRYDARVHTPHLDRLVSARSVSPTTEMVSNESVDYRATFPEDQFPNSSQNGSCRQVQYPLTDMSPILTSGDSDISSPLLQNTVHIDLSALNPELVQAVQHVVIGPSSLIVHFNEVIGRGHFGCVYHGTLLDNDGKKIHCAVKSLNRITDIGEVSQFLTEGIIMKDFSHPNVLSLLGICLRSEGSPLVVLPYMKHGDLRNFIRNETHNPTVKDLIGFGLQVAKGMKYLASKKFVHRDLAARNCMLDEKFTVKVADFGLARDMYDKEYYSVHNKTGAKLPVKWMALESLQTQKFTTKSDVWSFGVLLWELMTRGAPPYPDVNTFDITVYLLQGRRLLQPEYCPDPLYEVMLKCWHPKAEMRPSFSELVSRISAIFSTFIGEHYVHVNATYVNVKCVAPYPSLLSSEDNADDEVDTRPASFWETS
Method in brief: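 Europium-labeled PT66 antibody (Eu-N1) detects substrate phosphorylation on wells coated with phospholipase C-γ at 10 μg/mL. The kinase, the cytoplasmic domain of c-Met at 10 ng/mL, starts the reaction, which proceeds 15 minutes at 37° C.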

[2] = molecular target: T2, baculovirus-expressed ALK (Homo sapiens, UniProt Q9UM73); assay: ALK Kinase Assay (ELISA-type, time-resolved fluorescence); type: biochemical
T2 construct: host or cells: baculovirus expression system
T2 sequence (Q9UM73 19-1620): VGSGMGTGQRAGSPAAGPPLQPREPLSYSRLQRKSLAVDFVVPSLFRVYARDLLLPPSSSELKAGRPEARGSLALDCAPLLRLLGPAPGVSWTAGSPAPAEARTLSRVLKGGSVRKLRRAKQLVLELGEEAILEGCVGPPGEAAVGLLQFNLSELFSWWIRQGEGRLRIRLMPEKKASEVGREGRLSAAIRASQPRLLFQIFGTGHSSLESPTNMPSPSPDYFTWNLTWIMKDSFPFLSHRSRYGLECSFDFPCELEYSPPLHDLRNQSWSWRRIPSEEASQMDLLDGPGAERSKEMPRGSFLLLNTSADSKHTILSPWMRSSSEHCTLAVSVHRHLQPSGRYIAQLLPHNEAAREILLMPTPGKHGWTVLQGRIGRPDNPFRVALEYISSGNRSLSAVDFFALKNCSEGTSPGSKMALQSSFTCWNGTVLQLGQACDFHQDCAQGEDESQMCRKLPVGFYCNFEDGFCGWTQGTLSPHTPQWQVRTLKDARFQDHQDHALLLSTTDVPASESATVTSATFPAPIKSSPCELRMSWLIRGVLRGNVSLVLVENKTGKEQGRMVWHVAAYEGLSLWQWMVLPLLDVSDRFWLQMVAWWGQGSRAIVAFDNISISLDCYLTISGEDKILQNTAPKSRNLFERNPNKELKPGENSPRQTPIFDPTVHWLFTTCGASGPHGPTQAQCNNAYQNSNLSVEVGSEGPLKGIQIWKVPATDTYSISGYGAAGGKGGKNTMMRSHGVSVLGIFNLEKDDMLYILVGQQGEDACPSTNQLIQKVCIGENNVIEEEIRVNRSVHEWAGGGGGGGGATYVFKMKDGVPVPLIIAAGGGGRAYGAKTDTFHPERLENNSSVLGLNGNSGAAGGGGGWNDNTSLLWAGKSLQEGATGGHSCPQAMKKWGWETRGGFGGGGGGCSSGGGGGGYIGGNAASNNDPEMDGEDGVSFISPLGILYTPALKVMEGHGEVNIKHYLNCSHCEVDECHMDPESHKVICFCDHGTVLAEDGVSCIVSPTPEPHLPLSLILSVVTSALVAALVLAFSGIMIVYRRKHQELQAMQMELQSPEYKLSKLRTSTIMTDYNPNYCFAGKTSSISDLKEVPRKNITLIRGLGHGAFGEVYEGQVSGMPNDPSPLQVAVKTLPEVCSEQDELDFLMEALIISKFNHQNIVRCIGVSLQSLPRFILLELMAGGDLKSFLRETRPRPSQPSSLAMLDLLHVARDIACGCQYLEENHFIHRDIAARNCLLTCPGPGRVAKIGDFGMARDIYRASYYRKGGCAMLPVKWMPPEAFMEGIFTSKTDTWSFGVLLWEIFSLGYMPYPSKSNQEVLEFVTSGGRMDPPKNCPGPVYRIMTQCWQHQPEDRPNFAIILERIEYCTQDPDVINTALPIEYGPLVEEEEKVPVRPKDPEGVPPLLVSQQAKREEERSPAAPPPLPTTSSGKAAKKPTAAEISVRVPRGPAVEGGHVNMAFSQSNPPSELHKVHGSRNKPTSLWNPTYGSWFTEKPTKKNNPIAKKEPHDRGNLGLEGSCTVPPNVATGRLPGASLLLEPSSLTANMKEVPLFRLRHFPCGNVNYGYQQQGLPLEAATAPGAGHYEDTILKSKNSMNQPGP
Method in brief: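 Plates coated with phospholipase C-γ substrate (10 μg/mL in TBS); reaction started with 30 ng/ml ALK and run 15 min at 37° C. Phosphorylated substrate detected with Eu-N1-labeled PT66 antibody. IC50 from sigmoidal variable-slope fit of percent inhibition vs log concentration.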

[3] = c-Met kinase inhibition, 1 μM ATP, read-out: cMet Activity
[4] = ALK kinase inhibition, 1 μM ATP, read-out: ALK Activity
[5] = c-Met kinase inhibition, 1 μM ATP (Km level), read-out: cMet Activity
[6] = ALK kinase inhibition, 1 μM ATP (Km level), read-out: ALK Activity
[7] = 1 μM ATP (Km level), 10 ng/mL c-Met, read-out: cMet Activity (c-Met kinase inhibition, IC50 class)
[8] = 1 μM ATP (Km level), 30 ng/ml ALK, 37° C., 15 minutes, read-out: ALK Activity (ALK kinase inhibition, IC50 class)
[9] = 1 μM ATP (Km level), read-out: cMet Activity (c-Met Kinase Inhibition, IC50)
[10] = 1 μM ATP (Km level), read-out: ALK Activity (ALK Kinase Inhibition, IC50)

Molecule: COCCOc1cccc(F)c1Nc1nc(Nc2ccc3c(c2)CCOC(=O)N3C)ncc1Cl [Example 1778, 2-{5-Chloro-4-[2-fluoro-6-(2-methoxy-ethoxy)-phenylamino]-pyrimidin-2-ylamino}-5-methyl-8,9-dihydro-5H-7-oxa-5-aza-benzocyclohepten-6-one]
IC50 [1, 3]: 100 to 1000 nM | IC50 [2, 4]: 100 to 1000 nM

Molecule: COc1cc2c(cc1Nc1ncc(Cl)c(Nc3ccc(F)cc3S(=O)(=O)N(C)C)n1)CCN(CC(=O)N(C)C)CC2 [Example 831, 2-{7-[5-Chloro-4-(2-dimethylsulfamoyl-4-fluoro-phenylamino)-pyrimidin-2-ylamino]-8-methoxy-1,2,4,5-tetrahydro-benzo[d]azepin-3-yl}-N,N-dimethyl-acetamide]
IC50 [1, 9]: > 10000 nM | IC50 [2, 10]: < 100 nM

Molecule: CNS(=O)(=O)c1ccccc1Nc1nc(Nc2ccc3c(c2)C2CCC3CNC2)ncc1Cl (stereo not drawn) [Example 285, 2-[2-(10-Aza-tricyclo[6.3.2.0*2,7*]trideca-2,4,6-trien-4-ylamino)-5-chloro-pyrimidin-4-ylamino]-N-methyl-benzenesulfonamide]
IC50 [1, 5]: < 100 nM | IC50 [2, 6]: < 100 nM

Molecule: (1S,2S,3R,4R)-3-{5-Chloro-2-[7-(2,2-difluoro-ethylamino)-6,7,8,9-tetrahydro-5H-benzocyclohepten-2-ylamino]-pyrimidin-4-ylamino}-bicyclo[2.2.1]hept-5-ene-2-carboxylic acid amide [Example 677]
IC50 [1, 9]: > 10000 nM | IC50 [2, 10]: < 100 nM

Molecule: CCN1CC(=O)N(C)c2cc(Nc3ncc(Cl)c(N[C@@H]4CCCC[C@H]4NS(C)(=O)=O)n3)c(OC)cc2C1 [Example 745, N-[(1R,2R)-2-[5-Chloro-2-(4-ethyl-7-methoxy-1-methyl-2-oxo-2,3,4,5-tetrahydro-1H-benzo[e][1,4]diazepin-8-ylamino)-pyrimidin-4-ylamino]-cyclohexyl}-methanesulfonamide]
IC50 [1, 9]: > 10000 nM | IC50 [2, 10]: 100 to 1000 nM

Molecule: CNC(=O)CN1CCc2cc(Nc3ncc(Cl)c(N[C@H]4[C@@H](C(N)=O)[C@@H]5C=C[C@H]4C5)n3)c(OC)cc2CC1 [Example 1124, (1S,2S,3R,4R)-3-[5-Chloro-2-(8-methoxy-3-methylcarbamoylmethyl-2,3,4,5-tetrahydro-1H-benzo[d]azepin-7-ylamino)-pyrimidin-4-ylamino]-bicyclo[2.2.1]hept-5-ene-2-carboxylic acid amide]
IC50 [1, 7]: > 10000 nM | IC50 [2, 8]: < 100 nM

Molecule: CCC(C)N1C2CCC1c1cc(Nc3ncc(Cl)c(N[C@@H]4CCCC[C@H]4NS(C)(=O)=O)n3)ccc1C2 (mixture of isomers) [Example 84, N-{(1R,2R)-2-[2-(12-sec-Butyl-12-aza-tricyclo[7.2.1.0*2,7*]dodeca-2(7),3,5-trien-4-ylamino)-5-chloro-pyrimidin-4-ylamino]-cyclohexyl}-methanesulfonamide]
IC50 [1, 5]: 100 to 1000 nM | IC50 [2, 6]: < 100 nM

Molecule: CCN1CC(=O)N(CC)c2cc(Nc3ncc(Cl)c(Nc4c(C)csc4C(=O)NC)n3)ccc2C1 [Example 1874, 3-[5-chloro-2-(1,4-diethyl-2-oxo-2,3,4,5-tetrahydro-1H-benzo[e][1,4]diazepin-8-ylamino)-pyrimidin-4-ylamino]-4-methyl-thiophene-2-carboxylic acid methylamide]
IC50 [1, 3]: < 100 nM | IC50 [2, 4]: 100 to 1000 nM

Molecule: CC1(C)CCCNc2ccc(Nc3ncc(Cl)c(N[C@@H]4CCCC[C@H]4NS(C)(=O)=O)n3)cc21 [Example 392, N-{(1R,2R)-2-[5-Chloro-2-(5,5-dimethyl-2,3,4,5-tetrahydro-1H-benzo[b]azepin-7-ylamino)-pyrimidin-4-ylamino]-cyclohexyl}-methanesulfonamide]
IC50 [1, 5]: 1000 to 10000 nM | IC50 [2, 6]: < 100 nM

Molecule: CN1CCCCc2cc(Nc3ncc(Cl)c(N[C@@H]4CCCC[C@H]4NS(C)(=O)=O)n3)ccc21 [Example 104, N-{(1R,2R)-2-[5-Chloro-2-(1-methyl-2,3,4,5-tetrahydro-1H-benzo[b]azepin-7-ylamino)-pyrimidin-4-ylamino]-cyclohexyl}-methanesulfonamide]
IC50 [1, 5]: 100 to 1000 nM | IC50 [2, 6]: < 100 nM

Molecule: CNC(=O)c1cccc(F)c1Nc1nc(Nc2ccc3c(c2)N(C(C)C)C(=O)CCC3)ncc1Cl [Example 1474, 2-[5-Chloro-2-(1-isopropyl-2-oxo-2,3,4,5-tetrahydro-1H-benzo[b]azepin-8-ylamino)-pyrimidin-4-ylamino]-3-fluoro-N-methyl-benzamide]
IC50 [1, 3]: 100 to 1000 nM | IC50 [2, 4]: < 100 nM

Continued, values first:

IC50 [1, 3]: 1000 to 10000 nM | IC50 [2, 4]: < 100 nM
Molecule: COc1cc2c(cc1Nc1ncc(Cl)c(Nc3ccccc3S(=O)(=O)N(C)C)n1)CCN(CCO)CC2 [Example 1530, 2-{5-Chloro-2-[3-(2-hydroxy-ethyl)-8-methoxy-2,3,4,5-tetrahydro-1H-3-benzazepin-7-ylamino]-pyrimidin-4-ylamino}-N,N-dimethyl-benzenesulfonamide]

IC50 [1, 5]: 100 to 1000 nM | IC50 [2, 6]: 100 to 1000 nM
Molecule: CNC(=O)c1ccccc1Nc1nc(Nc2ccc3c(c2)C2CNCC3O2)ncc1Cl (stereo not drawn) [Example 65, 2-[5-Chloro-2-(12-oxa-10-aza-tricyclo[6.3.1.0*2,7*]dodeca-2(7),3,5-trien-4-ylamino)-pyrimidin-4-ylamino]-N-methyl-benzamide]

IC50 [1, 7]: 100 to 1000 nM | IC50 [2, 8]: < 100 nM
Molecule: CC(C)S(=O)(=O)c1ccccc1Nc1nc(Nc2ccc3c(c2)CCC(O)CC3)ncc1Cl (stereo not drawn) [Example 1037, 2-{5-Chloro-4-[2-(propane-2-sulfonyl)-phenylamino]-pyrimidin-2-ylamino}-6,7,8,9-tetrahydro-5H-benzocyclohepten-7-ol]

IC50 [1, 7]: < 100 nM | IC50 [2, 8]: < 100 nM
Molecule: COc1cc2c(cc1Nc1ncc(Cl)c(N[C@@H]3CCCC[C@H]3NS(C)(=O)=O)n1)CCC(N1CCN(C)CC1)CC2 (single isomer, unassigned) [Example 1102]

IC50 [1, 5]: > 10000 nM | IC50 [2, 6]: < 100 nM
Molecule: CCN1C(=O)CCC(C)(C)c2cc(Nc3ncc(Cl)c(Nc4ccc(N5CCOCC5)cc4OC)n3)ccc21 [Example 391, 7-[5-Chloro-4-(2-methoxy-4-morpholin-4-yl-phenylamino)-pyrimidin-2-ylamino]-1-ethyl-5,5-dimethyl-1,3,4,5-tetrahydro-benzo[b]azepin-2-one]

IC50 [1, 9]: > 10000 nM | IC50 [2, 10]: < 100 nM
Molecule: COc1cc2c(cc1Nc1ncc(Cl)c(Nc3ccccc3S(=O)(=O)C(C)C)n1)CCN(CC(F)F)CC2 [Example 827, 5-Chloro-N*2*-[3-(2,2-difluoro-ethyl)-8-methoxy-2,3,4,5-tetrahydro-1H-benzo[d]azepin-7-yl]-N*4*-[2-(propane-2-sulfonyl)-phenyl]-pyrimidine-2,4-diamine]

IC50 [1, 3]: 1000 to 10000 nM | IC50 [2, 4]: < 100 nM
Molecule: CNC(=O)c1ccccc1Nc1nc(Nc2cc3c(cc2OC)CCN(CCN2CCOCC2)CC3)ncc1Cl [Example 1524, 2-{5-Chloro-2-[8-methoxy-3-(2-morpholin-4-yl-ethyl)-2,3,4,5-tetrahydro-1H-3-benzazepin-7-ylamino]-pyrimidin-4-ylamino}-N-methyl-benzamide]

IC50 [1, 9]: > 10000 nM | IC50 [2, 10]: < 100 nM
Molecule: COCCN1CCc2cc(Nc3ncc(Cl)c(Nc4ccccc4-c4ncccc4C)n3)c(OC)cc2CC1 [Example 987, 5-Chloro-N*2*-[8-methoxy-3-(2-methoxy-ethyl)-2,3,4,5-tetrahydro-1H-benzo[d]azepin-7-yl]-N*4*-[2-(3-methyl-pyridin-2-yl)-phenyl]-pyrimidine-2,4-diamine]

IC50 [1, 7]: > 10000 nM | IC50 [2, 8]: < 100 nM
Molecule: CCN1C(=O)CCCc2c1ccc(Nc1ncc(Cl)c(Nc3ccc(N4CCN(C)CC4)cc3OC)n1)c2OC [Example 1311, 7-{5-Chloro-4-[2-methoxy-4-(4-methyl-piperazin-1-yl)-phenylamino]-pyrimidin-2-ylamino}-1-ethyl-6-methoxy-1,3,4,5-tetrahydro-benzo[b]azepin-2-one]

IC50 [1, 5]: > 10000 nM | IC50 [2, 6]: < 100 nM
Molecule: CCN1C(=O)CCCc2c(OC)ccc(Nc3ncc(Cl)c(Nc4ccc(N5CCOCC5)cc4OC)n3)c21 [Example 125, 9-[5-Chloro-4-(2-methoxy-4-morpholin-4-yl-phenylamino)-pyrimidin-2-ylamino]-1-ethyl-6-methoxy-1,3,4,5-tetrahydro-benzo[b]azepin-2-one]

IC50 [1, 9]: > 10000 nM | IC50 [2, 10]: 100 to 1000 nM
Molecule: COCCOC(=O)C1[C@@H]2C=C[C@@H](C2)[C@H]1Nc1nc(Nc2ccc3c(c2OC)CC[C@@H](N2CCOCC2)CC3)ncc1Cl (single isomer, unassigned) [Example 905]

IC50 [1, 9]: 1000 to 10000 nM | IC50 [2, 10]: < 100 nM
Molecule: COc1c(Nc2ncc(Cl)c(Nc3ccccc3-n3cccn3)n2)ccc2c1CCC(N1CCOCC1)CC2 (stereo not drawn) [Example 901, 5-Chloro-N*2*-(1-methoxy-7-morpholin-4-yl-6,7,8,9-tetrahydro-5H-benzocyclohepten-2-yl)-N*4*-(2-pyrazol-1-yl-phenyl)-pyrimidine-2,4-diamine]

IC50 [1, 9]: > 10000 nM | IC50 [2, 10]: < 100 nM
Molecule: CCCNC(=O)c1ccc(Nc2nc(Nc3ccc4c(c3)CCC(N3CCOCC3)CC4)ncc2Cl)c(OC)c1 (stereo not drawn) [Example 929, 4-[5-Chloro-2-(7-morpholin-4-yl-6,7,8,9-tetrahydro-5H-benzocyclohepten-2-ylamino)-pyrimidin-4-ylamino]-3-methoxy-N-propyl-benzamide]
